Experimental data taken from a melting point compilation (Tetko et al.; mined from patent text by program, amines drawn as free bases though some values may be those of a salt).

| SMILES | melting point [°C] |
| --- | --- |
| CC1(C)Cc2ccc(C#N)cc2N(C(=O)NCc2ccccc2)C1 | 162 to 163 |
| CC(C)(C)c1ocnc1C=C(O)C(=O)N[C@@H](Cc1ccccc1)C(N)=O | 50 to 53 |
| COCc1cccc(Cl)c1NC(=O)CC1c2ccccc2Oc2ccccc21 | 184 to 185 |
| C=CCNc1cc(Oc2ccccc2)c(Cl)cc1[N+](=O)[O-] | 81 to 82 |
| O=c1ncc(Cl)cn1CSc1ccc(Cl)cc1 | 191 |
| O=C(OCc1ccccc1)c1ncn2c1[C@@H]1CCCN1C(=O)c1c(Cl)cccc1-2 | 141 to 142 |
| CCc1nn(-c2c(Cl)cc(C(F)(F)F)cc2Cl)c(Cl)c1-c1nc(C#N)c(C#N)[nH]1 | 75 to 78 |
| COCCn1nc(-c2sc(C(=O)NC(C)C)nc2-c2ccccc2)ccc1=O | 172 |
| Cc1nc(-c2[nH]c3ccccc3c2C#N)no1 | 209 to 212 |
| COc1ccc(-n2c(CC(=O)O)c(C(=O)O)c3cc(Oc4cccc(C(F)(F)F)c4)ccc32)cc1 | 210 |
| CCOC(=O)c1ccc2[nH]cc(C3=CCN(C)CC3)c2c1 | 249 |
| COc1cc2cnnc(N3CCC(CCN(C)C(=O)N(C)C)CC3)c2cc1OC | 140 to 141 |
| C=CCOC(=O)NC(=O)C(C)(c1ccccc1)c1ccccc1 | 89 |
| CN(NC(=O)c1ccccc1C(=O)O)C(=S)Nc1ccccc1 | 155 to 156 |
| N#CC1CN1C(=O)NC(=O)c1cc2ccccc2o1 (stereo not given) | 190 to 192 |
| CC1OC(Cc2cccc3c2C(=O)c2ccccc2C3=O)CC(N)C1O (stereo not given) | > 280 |
| C[C@@H]1N=C(c2ccccc2F)c2c(ccc(N)c2Cl)N(C)C1=O | 222 to 226 |
| Fc1ccc(C2=CC(=C(C(F)(F)F)C(F)(F)F)N=C2c2ccc(F)cc2)cc1 | 145 to 146 |
| C[C@@H](Cc1ccc(OCC(=O)O)cc1)NS(=O)(=O)c1ccccc1 | 89 to 91 |
| CCOC(=O)c1cn(CC)c2nn(C)cc2c1=O | 170 to 172 |
| CNS(=O)(=O)c1cc2c(c(C(=O)O)c1)OCCO2 | 208 to 209 |
| CCOC(=O)C1=C(C)N=C(SCc2ccc(OC)cc2)N(C(=O)OCC)C1c1ccccc1OC (stereo not given) | 116 to 118 |
| Cc1cnn(-c2ccc(C(=O)N3C=C4CC=CN4Cc4ccccc43)cc2)c1 | 179 to 181 |
| COC(=O)Cc1n[nH]c2ccccc12 | 146 |
| COC(=O)c1ccc(Cn2ncc3ccccc32)cc1 | 89 to 90 |

| SMILES | melting point [°C] |
| --- | --- |
| CCCCC1C=C(n2c3ccccc3c3ccccc32)c2ccccc2N1C(=O)c1ccc(OC)c(OC)c1 (stereo not given) | 174 to 175 |
| O=[N+]([O-])c1cc(I)cnc1Cl | 77 to 79 |
| CC(C(=O)O)c1ccc(C(=O)c2cccs2)c(Cl)c1 (stereo not given) | 82.5 |
| COC(=O)CNc1ccccc1C#N | 70 to 78 |
| O=C(COc1ccc([N+](=O)[O-])cc1)NCc1ccccc1 | 125 to 126 |
| COC(=O)CCc1cc2c(OC)cccc2n1Cc1ccccc1 | 195 to 196 |
| O=C1CCCc2nc(N3CCNCC3)ncc2N1 | 175 to 178 |
| CCOC(=O)CCN(Cc1ccc(OC)c(OC)c1)C(=O)CN(C)C(=O)Cc1ccc(NC(=O)Nc2ccccc2C)c(OC)c1 | 97 to 105 |
| Nc1nc(-n2cc(C(=O)O)c(=O)c3cc(F)c(F)c(Cl)c32)ccc1F | 232 to 235 |
| CC(=O)Nc1ccc(/C=C/C(=O)N2CC(CCl)c3c2cc(N)c2ccccc32)cc1 (stereo not given) | > 250 |
| CCOC1=NC(N)=C(C(=O)OC)C(c2ccccc2F)C1C(=O)OC (stereo not given) | 180 |
| N#Cc1ccc(OCc2ccc3c(c2)OCO3)cc1OC(C(=O)O)c1ccccc1C(F)(F)F (racemic) | 137 to 138 |
| CCn1ncnc1COc1nc2c(-c3ccccc3)nnc(C)n2c1C1CCCC1 | 94 to 96 |
| Cn1cc(Oc2cccc(Cl)c2Cl)c(=O)c(-c2cccc(C(F)(F)F)c2)c1 | 200 to 202 |
| CCCc1sc(NC(=O)C2CCCCC2)c(C#N)c1OC | 146 to 147 |
| O=[N+]([O-])c1cccc2nc[nH]c12 | 242 to 245 |
| CC(=O)N1N=C(C=Cc2ccc([N+](=O)[O-])cc2)c2cc3c(cc2CC1C)OCO3 (stereo not given) | 188 to 190 |
| COC(=O)C(O)CC1CCC(=O)N1 (stereo not given) | 87 to 90 |
| O=C(c1cc(Cl)c(Cl)cc1NS(=O)(=O)c1cccc2nsnc12)N1CCCCC1 | 178 to 179 |
| CCN(CC)CC(C)N1c2ccccc2Sc2ccc(C(N)=S)cc21 (stereo not given) | 180 |
| Cc1ccccc1-c1cc(-c2ccccc2C(=O)O)on1 | 162 to 164 |
| CC(C)Oc1ccc(Cc2nn(-c3ccccc3Cl)c(=O)o2)cc1 | 54 |
| Cc1cccc(-c2cccc(OC3SCC(O)C(O)C3O)c2)n1 (stereo not given) | 143 |
| COc1cc2c(cc1OC)C(c1ccc(Cl)cc1)=NN=C(C)C2 | 188 to 198 |
| CCc1nc2c(cnn2CC)c(NC2CCOCC2)c1CNC(=O)c1cccc(C(=O)NCc2cc(Cl)cc(-c3cccc(CN4CCNCC4)c3)c2)c1 | 119 to 122 |
